System: WBCs from whole blood
Assay: DLD assay: WBC biophysical profiling (size Dapp, deformability CDMdot) after in vitro activation of whole blood
Format: cell-based
Conditions: for WBC Dapp (average of L and L^-1 DLD assays): 2 hours incubation, undiluted whole blood at 37° C., 2.5 μL/min, n=5, healthy baseline 9.7±0.1 μm; for increase in WBC Dapp: 2 hours, versus healthy baseline
Procedure: The open reservoirs 102A, 102B and 102C facilitate easy sample loading, sample resuspension to prevent settling of cells and washing the reservoir to reuse the device. The required loaded volume per run is 10 μL and the reservoir can hold up to 25 μL of blood. As the fluid is withdrawn, the sample flows through a region comprising 21 DLD device segments sandwiched between two 1× phosphate-buffered saline (PBS) buffer streams (see Table 2). Each segment comprises an array of pillars and has a specific DLD critical cut-off size (Dc) determined by the empirical Equation (1): […]
where G is the regular spacing between pillars and θ is the gradient of the pillar array. This design is known as a chirped DLD array where each downstream segment has an increasing pillar row-shift gradient corresponding to an increasing Dc ranging from 6.0 to 16.0 μm in steps of 0.5 μm (see Methods). Immune cells flowing through the device 100 are deflected laterally only within DLD segments where cell sizes are larger than Dc; the cells therefore exit the device 100 at defined lateral positions depicted in the output region shown in FIG. 1A. The output of the sorting forms a spectrum in its size distribution (i.e., a biophysical parameter based on a distribution profile of the cells sorted by the array of pillars).
To evaluate the biophysical combinatorial immune profiling potential of DLD assay, a single biophysical size and deformability parameter is determined. For size parameters, the average Dapp for L and L^−1 assays was quantified at 2.5 μL/min, while a single cell deformability parameter (CDMdot) was emphasized by taking the product of the CDML and CDML^−1 measurements. Performing a product amplifies the deformability differences compared to CDML and CDML^−1 measurements individually (see FIG. 8). By combining the measurements of two DLD devices, a unique leukocyte biophysical fingerprint as a profiling tool to measure different states of WBC from whole blood in real-time was envisioned (see FIG. 1B).
Direct sample measurements enable the study of WBC biophysical profiles in different health states of an individual for healthy donors, patients admitted to the ED without signs of infection (ED Control), and patients with clear signs of infection and fulfilling at least two SIRS criteria (ED≥2 SIRS) (See Table 3). The second group are tests performed on blood, which have undergone external or in vitro test conditions to activate the WBCs. These include 5 ng/ml lipopolysaccharide (LPS), which mimics the bacteria coat that would trigger inflammation and phorbol 12-myristate 13-acetate (PMA) at 100 and 1000 nM, a known activator of WBCs. […]

## CCCCCCCCCCCCCC(=O)O[C@@H]1[C@@H](C)[C@@]2(O)[C@@H](C=C(CO)C[C@]3(O)C(=O)C(C)=C[C@@H]23)[C@@H]2C(C)(C)[C@]12OC(C)=O [PMA, phorbol 12-myristate 13-acetate]
PMA 100 nM
  WBC Dapp (average of L and L^-1 DLD assays): 12.6±0.8 μm
  increase in WBC Dapp: 30%
PMA 1000 nM
  WBC Dapp (average of L and L^-1 DLD assays): 13.9±0.7 μm
  increase in WBC Dapp: 43%
